From US20200360391A1, “Medicinal Composition for Treating Intractable Heart Disease” (Osaka University, priority 2016, published 2020)
Structures can show the parent of a compound that is named as a salt. Where two headings read alike, the source gives them in different places.

Columns and labels:
[1] = human, in vivo; cited from earlier work
[2] = tested on: BLM-induced mouse pulmonary fibrosis model; conditions: cited from earlier work
[3] = tested on: rats; conditions: cited from earlier work
[4] = tested on: spontaneous dilated cardiomyopathy (J2N-k) hamster model; assay: Spontaneous dilated cardiomyopathy (J2N-k) hamster model, 8-week administration from 20 weeks of age (Tests 1-3): echocardiography, body weight; conditions: for Body weight 0 W: Test 2, at grouping; for Minimal effective dose (screening 2): mg/kg twice per day, oral preparation
Protocol: The doses of pharmaceutical products were determined based on the no-observed-adverse-effect levels in a long-term toxicity study using rats. δ-Glycan-deficient spontaneous dilated cardiomyopathy (J2N-k) male hamsters (Japan SLC, Inc.) were delivered at 18 weeks of age. After a 2-week quarantine/acclimation, echocardiography was performed.
Each of the pharmaceutical products (A to K and O) was individually administered twice daily (at an interval of 8 hours or more) by oral gavage, and echocardiography was performed after 4 and 8 weeks (before dissection). Differences from the value before the start of administration (at the time of grouping) (amount of change: Δ) in each group were examined, and the cardiac function (EF value, FS %, etc.) was compared with that in the vehicle group (Group 1). Moreover, the heart was removed […] after the start of administration, and electron microscopy and RNA protein measurement were performed. Specimens for immunopathology were also collected and evaluated.
Each pharmaceutical product was individually suspended in 0.5% CMC-Na (sodium carboxymethylcellulose; Wako Pure Chemical Industries, Ltd.) before use, and administered. […] To Group 1 (control), 0.5% CNC-Na (vehicle) was administered.
Each pharmaceutical product was individually suspended in 0.5% CMC-Na (sodium carboxymethylcellulose; Wako Pure Chemical Industries, Ltd.) before use, and administered. Test substance G was suspended in distilled water before use, and administered.
Reason the doses were set (assuming that the adult body weight was 60 kg, the same amounts as the maximum clinical doses were set) • 1) The clinical dose of C (ozagrel; OZ) was 200 mg twice per day. The dose was thus set to 3.3 mg/kg twice per day. • 2) The clinical dose of D (cilostazol; CS) was 100 mg twice per day. The dose was thus set to 1.7 mg/kg twice per day. • 3) The clinical dose of E (pirfenidone; PF) was 600 mg three times per day, i.e., 1800 mg/day in total. The dose was thus set to 15 mg/kg twice per day. • 4) The clinical dose of G (nintedanib sulfonate; OB) was 150 mg twice per day. The dose was thus set to 2.5 mg/kg twice per day. • 5) The clinical dose of P (carvedilol; CV) was 10 mg twice per day. The dose was thus set to 0.17 mg/kg twice per day. • 6) Preparation 2 (PLGA⋅MS preparation of camostat; B⋅MS): the clinical dose of active substance camostat was 200 mg three times per day, i.e., 600 mg/day in total; thus, intermittent subcutaneous administration at a daily dose of 10 mg/kg once every 4 weeks, twice in total was set. The dose was 1/28 of the total oral dose amount.
The dose volume in oral administration was 5 mL/kg (the amount of liquid to be administered to each animal was calculated based on the most recent body weight), and administered by oral gavage using a polypropylene disposable syringe and a rat stomach tube.
The administration period of each pharmaceutical product was 8 weeks.

[5] = tested on: rat coronary artery complete ischemia model; assay: Model of ischemia (MI) by rat coronary artery complete ligation (Tests 1 and 2): echocardiography, body weight; conditions: for Body weight / value of change in E.F. compared with E.F. on Day 1 / value of change in F.S. compared with F.S. on Day 1: MI Test 2, B 150, G 5, I 30, C 10 mg/kg p.o. b.i.d.; for Body weight: B MS 100, C MS 50, I MS 30 mg/kg s.c. single injection, mean; for value of change in E.F. compared with E.F. on Day 1 / value of change in F.S. compared with F.S. on Day 1: B-MS 100, C-MS 50, F-MS 30 mg/kg s.c. single injection, mean ± S.D.
[6] = tested on: rats; assay: Repeated oral administration toxicity study in rats (dose-setting basis); conditions: mg/kg twice per day, oral preparation
Excerpt: The dose-setting basis for the doses of the test substances used in pharmacological tests is as described below.

[7] = tested on: rats; conditions: cited from earlier work; remark: listed apart in the source
[8] = Test 2, p.o. b.i.d., NOAEL-based dose

Compound	Body weight 0 W [4] [g]	LVIDd 4 W ([4]; Test 2, p.o. b.i.d.) [mm]	LVIDd 8 W ([4]; Test 2, p.o. b.i.d.) [mm]	LVIDs 4 W ([4]; Test 2, p.o. b.i.d.)	LVIDs 8 W ([4]; Test 2, p.o. b.i.d.)	Body weight 2 W [4, 8] [g]	Body weight 3 W [4, 8] [g]	Body weight 4 W [4, 8] [g]	Body weight 5 W [4, 8] [g]	Minimal effective dose (screening 2) [4] [mg/kg]	Body weight ([5]; 1 Day) [g]	Body weight ([5]; 7 Day) [g]	Body weight ([5]; 14 Day) [g]	value of change in E.F. compared with E.F. on Day 1 ([5]; 14 Day)	value of change in F.S. compared with F.S. on Day 1 ([5]; 14 Day)	Body weight ([5]; 21 Day) [g]	Body weight ([5]; 29 Day) [g]	value of change in E.F. compared with E.F. on Day 1 ([5]; 29 Day)	value of change in F.S. compared with F.S. on Day 1 ([5]; 29 Day)	Maximum no-observed-adverse-effect level (screening 1) [6] [mg/kg]	other results
COC(=O)c1ccc2c(c1)NC(=O)/C2=C(\Nc1ccc(N(C)C(=O)CN2CCN(C)CC2)cc1)c1ccccc1 [Compound G, Nintedanib ethanesulfonate]	121.6	6.9	7.2	5.7 ± mm	6.1 ± mm	122.0	123.8	126.1	127.1	2.5	240.9	248.1	273.9	<−6.2 ± 1.8> %	<−3.4 ± 1.1> %	290.5	311.0	<−11.0 ± 2.7> %	<−5.8 ± 3.6> %	5	Abdominal pain cases [1]: 10.2%; Diarrhea cases [1]: 53.6%; Elevated AST (GOT) and/or ALT (GPT) / liver enzyme cases [1]: 10.5%; Nausea cases (cilostazol: nausea/vomiting) [1]: 19.1%; Inhibitory effect on pulmonary fibrosis, 60 mg/kg versus 30 mg/kg ([2]; prophylactic administration Day 0 to Day 14, once daily oral gavage): slightly higher inhibitory effect on pulmonary fibrosis; Dose with apparent effect on both inflammation and fibrosis ([2]; therapeutic administration Day 7 to Day 21, once daily oral gavage): 60 mg/kg; No-observed-adverse-effect level ([3]; rats, 6 months): 5 mg/kg; Dose at which toxic findings were observed ([3]; repeated administration in rats, duration per compound): 20 mg/kg/day; % FS 4 W [4, 8]: significantly higher; % FS value of change at 4 W compared with 0 W [4, 8]: significantly higher; Body weight 1 W [4, 8]: 121.3 g; Body weight 7 W [4, 8]: 129.2 g; Body weight 8 W [4, 8]: 128.9 g; EF 4 W [4, 8]: significantly higher; LVIDs 8 W ([4]; Test 2, p.o. b.i.d., listed as nintedanib): significantly lower; Cardiac function (EF, FS %) actual measured value and/or amount of change compared with control, 8 W value ([4]; Test 3, clinical dose): significant cardiac function improvement effect; EF actual measured value and/or amount of change compared with control ([5]; MI Test 2, Day 14 and Day 29): significantly higher; Values of cardiac function (EF, FS %) compared with control ([5]; MI Test 2, oral b.i.d. 4 weeks or single subcutaneous administration): significantly higher
CCCc1nn(C)c2c(=O)[nH]c(-c3cc(S(=O)(=O)N4CCN(C)CC4)ccc3OCC)nc12 [Compound I, Sildenafil citrate]	120.4	7.1	7.3	5.9 mm	6.2 ± mm	122.3	123.7	125.5	126.9	0.4	240.3	237.3	263.0	<−5.1 ± 2.5> %	<−2.8 ± 1.4> %	278.3	297.5	<−7.6 ± 4.3> %	<−4.1 ± 2.3> %	30	Lethal dose ([7]; intravenous injection in rats): ≥ 10 mg/kg; Lethal dose ([7]; oral administration): ≥ 1000 mg/kg; Body weight 6 W [4, 8]: 128.9 g
